# Measurements taken from patent US20220332802A1, “METHODS AND COMPOSITIONS FOR TREATMENT OF NEURODEGENERATION” (Children's Hospital Medical Center, priority 2019, published 2022).
# T1: C5aR1 (Homo sapiens, UniProt P21730)
# T1 sequence (P21730 1-350): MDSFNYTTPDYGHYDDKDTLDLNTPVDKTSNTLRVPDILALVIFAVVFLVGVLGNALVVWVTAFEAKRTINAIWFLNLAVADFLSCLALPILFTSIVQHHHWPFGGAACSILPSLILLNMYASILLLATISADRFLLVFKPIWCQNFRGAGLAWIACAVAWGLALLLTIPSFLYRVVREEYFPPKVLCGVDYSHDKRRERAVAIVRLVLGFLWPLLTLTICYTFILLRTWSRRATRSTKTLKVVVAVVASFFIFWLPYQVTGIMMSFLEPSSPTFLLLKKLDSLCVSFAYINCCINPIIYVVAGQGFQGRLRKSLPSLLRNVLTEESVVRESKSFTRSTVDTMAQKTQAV
# T2: GCase (Mus musculus, UniProt P17439)
# T2 sequence (P17439 20-515): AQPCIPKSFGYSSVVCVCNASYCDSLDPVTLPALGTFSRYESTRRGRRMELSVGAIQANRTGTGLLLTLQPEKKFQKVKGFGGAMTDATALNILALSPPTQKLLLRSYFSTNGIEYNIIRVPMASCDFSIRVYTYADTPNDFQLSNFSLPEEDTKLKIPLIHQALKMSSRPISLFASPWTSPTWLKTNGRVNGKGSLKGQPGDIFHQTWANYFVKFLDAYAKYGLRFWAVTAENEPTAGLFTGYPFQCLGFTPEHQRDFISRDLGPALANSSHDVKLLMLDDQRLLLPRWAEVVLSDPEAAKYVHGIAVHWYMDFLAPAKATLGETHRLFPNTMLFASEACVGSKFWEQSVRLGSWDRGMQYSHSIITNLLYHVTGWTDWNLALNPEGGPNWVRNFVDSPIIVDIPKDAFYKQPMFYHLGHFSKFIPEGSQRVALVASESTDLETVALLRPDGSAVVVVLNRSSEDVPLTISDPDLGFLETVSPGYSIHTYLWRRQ
# T3: glucocerebrosidase (GCase) (Mus musculus, UniProt P17439)
# T3 construct: from tissue; brain examined
# T3 sequence (P17439 20-515): T2 sequence (P17439 20-515)
# B1: C5a-(1-66, Cys27Ala)-A8B-Del.71-73) (protein)
# chain: TLQKKIEEIAAKYKHSVVKKCCYDGAAVNNDETCEQRAARISLGPRCIKAFTECCVVASQLRANISFKRS
# modifications: (C5a-(1-66,Cys27Ala)-A8B-Del 71-73)
# notes: mutein of human C5a that targets C5aR1 and C5aR2 simultaneously
# Columns and labels:
# C5aR1 = target: T1, C5aR1; conditions: cited from earlier work
# GCase [1] = target: T2, GCase; set-up: from tissue; brain examined; conditions: i.p. 50 mg/kg/day for 4 weeks; cited from earlier work
# [2] = target: T3, glucocerebrosidase (GCase); assay: Targeting of GCase with CBE in WT and C5aR1-/- mice, 60-day observation; assay type: in vivo; conditions: CBE-injected WT mice
# Excerpt: 9V/null mice suffered from massive accumulation of GC in the brain and loss of neurons. Applicant targeted glucocerebrosidase (GCase) with conduritol B epoxide (CBE) in WT and C5aR1^−/− mice. Strikingly, CBE-injected WT mice died within 30 days.
# GCase [3] = target: T2, GCase
# [4] = tested on: experimental Gaucher disease; conditions: cited from earlier work
molecule,measurement,setting,value
Cyclo[N2-(1-Oxo-3-phenylpropyl)-Orn-Pro-D-Cha-Trp-Arg] [PMX 205],concentration at which the peptide specifically targets C5aR1,C5aR1,nanomolar concentrations
same,manner of action at C5aR1,C5aR1,pseudo-irreversible and insurmountable
"O[C@H]1[C@H](O)[C@@H](O)[C@@H]2O[C@@H]2[C@@H]1O (racemic) [CBE, conduritol B epoxide]",reduction of GCase activity,GCase [1],25-50%
same,time to death,[2],≤ 30 days
same,"motor, memory and reactivity behaviour","GCase [3]; CBE-GCase targeted WT or C5aR1-/- mice, FIG. 8",no motor or memory defects but are hyper-reactive
same,brain glucosylceramide,"GCase [3]; brain of CBE-GCase targeted PD mouse model, FIG. 1",increased glucosylceramide
same,brain C5a and C5aR1,"GCase [3]; brains of CBE-GCase targeted PD mouse model, FIG. 2",increased C5a and C5aR1
same,brain pro-inflammatory cytokines,"GCase [3]; brains of CBE-GCase targeted PD mouse model, FIG. 3",increased pro-inflammatory cytokines
B1,survival and disease signs,[4],increase survival and reverse disease signs
